Key:
[1] = tested on: HIV-1 clone NL4.3 (subtype B); experiment: HIV-1 NL4.3 (subtype B) infection of human PBMCs, Cell Titer Blue readout; type: cell-based
Method: (§1) Human PMBCs were incubated with 100 U recombinant IL-2 (Sigma-Aldrich) and 5 µg/mL phytohemagglutinin-P (PHA-P) (Difco) for 5 days at 37°C. MT-4 cells (1×10^6) or treated PBMCs (1.2×10^8) were infected with HIV-1 clone NL-4.3 or ZM247Fv-1 (MOI of 0.001) by spinoculation (1200 g at room temperature for 2 h). Uninfected cells were used as negative control and were also subjected to the spinoculation process. After spinoculation, supernatants were discarded and cells were resuspended in 10 mL of R10. Cells from each condition were then added to wells (96-well plate) containing serial dilutions of each ISD. For MT-4 cells, each dilution was done in sextuplicates and, for PBMCs, in triplicates. Cells were also incubated with different concentrations of ZDV as positive control. After 5 days in culture, Cell Titer Blue was added to each well and cells were incubated for additional 24 h. The median effective concentration for each drug is defined as EC50. In parallel with the infectivity assay, the same cell types were treated with different concentrations of drugs to determine their cytotoxicity, following the protocol described above. Drug concentration that results in a 50% decrease in viable cells is defined as the CC50 for each compound. EC50 was calculated according to Spearman-Karber and therapeutic index was defined by the ratio between CC50 and EC50 [55].
(§2) All statistical analyses were performed using program GraphPism version 6.0. Titrations for TCID50 infectivity were calculated by the Spearman-Karber method. Dose response curves to ISDs with HIV-1 subtype B and C were done using non-linear regression and were fit to the Hill equation.

[2] = Cytotoxicity (CC50) in MT-4 cells; type: cell-based; details: human, Subtype B (X4)
Method: (§3) Cytotoxicity of ISDs was evaluated in J-Lat (clones 9.2 and 10.6) and PHA-activated human PBMCs. Cells were added to wells in a 96-well plate in the presence of various concentrations of ISDs, PMA or prostratin in sextuplicates for 24 and 72 h. Cell viability was determined using the CellTiter-blue fluorescence Cell Viability Assay (Promega) following the manufacturer's instruction.
as §1

HIV LTR in J-Lat clones = experiment: LTR-driven GFP expression in J-Lat clones; type: cell-based, HIV-1; details: J-Lat clones 9.2 and 10.6, 48 h, all concentrations tested
Method: J-Lat cells are Jurkat cells stably transfected by an HIV genome whose nef sequence was replaced by the GFP gene. Also, a frameshift mutation was introduced to the env gene to prevent virus spread. […] To test the ISDs, a million cells of each clone were treated with different concentrations of each compound (ING-A, ING-B, ING-C, prostratin and PMA) at 37°C. TNF-α (10 ng/mL) was used as a positive control. After 48 h, cells were collected, washed with saline solution (PBS) and GFP expression was evaluated in a FACScalibur cytometer (BD Biosciences). Data were analyzed with Cell Quest Pro software (BD Biosciences).

[3] = tested on: HIV-1 clone ZM247Fv-1 (subtype C); experiment: HIV-1 ZM247Fv-1 (subtype C) infection of human PBMCs, Cell Titer Blue readout; type: cell-based; details: for EC50: Human immunodeficiency virus 1, PBMC
Method: as §1, §2

[4] = Cytotoxicity (CC50) in human PBMCs; type: cell-based; details: human PBMCs activated with IL-2 and PHA-P; Human PBMC, Subtype C (R5)
Method: as §3, §1

[5] = tested on: HIV-1 clone ZM247Fv-1 (subtype C); experiment: HIV-1 ZM247Fv-1 (subtype C) infection of MT-4 cells, Cell Titer Blue readout; type: cell-based; details: for EC50: Human immunodeficiency virus 1, MT4
Method: as §1, §2

[6] = tested on: HIV-1 clone NL4.3 (subtype B); experiment: HIV-1 NL4.3 (subtype B) infection of MT-4 cells, Cell Titer Blue readout; type: cell-based; details: for EC50: Human immunodeficiency virus 1, MT4
Method: as §1, §2

HIV = tested on: HIV; parameters: method as in PMID 8787923; details: MT-4 cells; cited from earlier work
CD4+ T lymphocytes = experiment: Activation markers CD25, CD38, HLA-DR, CD69 on CD4+ T lymphocytes (cytometry); type: cell-based, human; details: 1 µM
Method: For analysis of cell surface marker expression, MT-4 cells and bead-selected CD4+ T cells (described above) were incubated with 1 µM of each compound (ING-A, ING-B, ING-C, prostratin, PMA, and bryostatin-1) at 37°C for 48 h. […] Cells (both MT-4 cells and CD4+ T cells) were initially incubated for 2 h with different PKC inhibitors (GÖ6983, GÖ6976 or RO-31-8220). Then, ING-B, prostratin or PMA at 1 µM or TNF-α at 10 ng/mL were added to each condition and incubation was carried out for 24 h at 37°C. […] GFP expression, surface marker expression and activation marker were evaluated on a LSR Fortessa cytometer (BD Biosciences). Data analysis was performed using FlowJo software (Tree Star).

[7] = tested on: CD4, CXCR4, CCR5 on CD4+ T lymphocytes; experiment: Surface CD4, CXCR4, CCR5 expression in CD4+ T lymphocytes (cytometry); type: cell-based, human; details: CD4+ lymphocytes, 1 µM
Method: (§4) For analysis of cell surface marker expression, MT-4 cells and bead-selected CD4+ T cells (described above) were incubated with 1 µM of each compound (ING-A, ING-B, ING-C, prostratin, PMA, and bryostatin-1) at 37°C for 48 h. After incubation, cells were washed with PBS and incubated for 20 min at room temperature with antibodies against CD3-Brilliant Violet 510 (clone OKT3 – Biolegend), CD4-Qdot 655 (clone 53.5 - Life Technologies), CXCR4-PE (clone 1265 - BD Biosciences), CCR5-PerCP-Cy5.5 (clone 3A9 - BD Biosciences), CD69-Pacific Blue (clone FN50 – BD Biosciences), CD38-FITC (clone AT-1 – Stem Cell Technologies), CD25-APC (clone 2A3 – BD Biosciences), HLA-DR-Qdot 605 (clone TÜ36 – Life Technologies) and a marker for annexin V-FITC (Life Technologies). Cells (both MT-4 cells and CD4+ T cells) were initially incubated for 2 h with different PKC inhibitors (GÖ6983, GÖ6976 or RO-31-8220). Then, ING-B, prostratin or PMA at 1 µM or TNF-α at 10 ng/mL were added to each condition and incubation was carried out for 24 h at 37°C. Similar protocol was used for the analysis of PKC inhibitors in J-Lat clones 9.2 and 10.6. GFP expression, surface marker expression and activation marker were evaluated on a LSR Fortessa cytometer (BD Biosciences). Data analysis was performed using FlowJo software (Tree Star).

[8] = tested on: CD4, CXCR4, CCR5 on MT-4 cells; experiment: Surface CD4, CXCR4, CCR5 expression in MT-4 cells (cytometry); type: cell-based; details: 1 µM
Method: as §4

HIV-1 subtype B and C = experiment: Inhibition of HIV-1 subtype B and C replication, summary over MT-4 cells and human PBMCs; type: cell-based; details: Human immunodeficiency virus 1, PBMC, MT-4 and human PBMCs
Method: as §1

PKC [9] = experiment: PKC inhibitors on diterpene-induced GFP expression in J-Lat clones 9.2 and 10.6; type: cell-based; details: J-Lat clones 9.2 and 10.6, pre-treatment, then ING-B 24 h
Method: as §4

PKC [10] = experiment: PKC inhibitors on ING-B-driven receptor downregulation in CD4+ T lymphocytes; type: cell-based, human; details: 0.1 µM inhibitor in the presence of 1 µM ING-B
Method: as §4

PKC [11] = experiment: PKC inhibitors on ING-B-driven receptor downregulation in MT-4 cells; type: cell-based; details: 0.1 µM inhibitor, then 1 µM ING-B 24 h
Method: as §4

**Q.** Which “TI (CC50/EC50)” value ([1]; Human PBMC, Subtype B (X4)) does the source give for `CC1=C[C@]23C(=O)[C@@H](C=C(CO)[C@@H](O)[C@]2(O)[C@H]1OC(=O)/C=C/c1ccccc1)[C@H]1[C@@H](C[C@H]3C)C1(C)C` [ING-A, ingenol-3-trans-cinnamate] here?
**A.** 641.5

**Q.** And the EC50 ([1]; Human immunodeficiency virus 1, PBMC)?
**A.** 0.053 µM

**Q.** What about the CC50 at 5 days [2] of the same compound?
**A.** 25 µM

**Q.** What about the “levels of GFP expression, rank order” value (HIV LTR in J-Lat clones) of the same compound?
**A.** PMA = ING-B > ING-A = ING-C > prostratin

**Q.** What about the “TI (CC50/EC50)” value ([3]; Human PBMC, Subtype C (R5)) of the same compound?
**A.** 693.9

**Q.** And the EC50 [3]?
**A.** 0.049 µM

**Q.** And the CC50 at 5 days [4]?
**A.** 34 µM

**Q.** What about the EC50 [5] of the same compound?
**A.** 0.038 µM

**Q.** And the “TI (CC50/EC50)” value ([5]; MT-4 cells, Subtype C (R5))?
**A.** 657.9

**Q.** And the EC50 [6]?
**A.** 0.037 µM

**Q.** And the “TI (CC50/EC50)” value ([6]; MT-4 cells, Subtype B (X4))?
**A.** 675.6

**Q.** Which “concentration inhibiting HIV replication (as low as)” value (HIV) does the source give for `CC(=O)OCC1=C[C@@H]2C(=O)[C@]3(C=C(C)[C@H](OC(C)=O)[C@@]3(O)[C@@H]1OC(C)=O)[C@H](C)C[C@@H]1[C@H]2C1(C)C` [ITA, Ingenol 3,5,20-triacetate] here?
**A.** ≥ 0.05 µM

**Q.** Which CD25 surface expression (CD4+ T lymphocytes) does the source give for `CCCCCCCCCCCCCC(=O)O[C@@H]1[C@@H](C)[C@@]2(O)[C@@H](C=C(CO)C[C@]3(O)C(=O)C(C)=C[C@@H]23)[C@@H]2C(C)(C)[C@]12OC(C)=O` [PMA, phorbol 13-myristate acetate] here?
**A.** upregulated

**Q.** What about the “CD69 and CD38 surface expression” value (CD4+ T lymphocytes) of the same compound?
**A.** more intensely

**Q.** And the HLA-DR surface expression (CD4+ T lymphocytes)?
**A.** upregulated by ISDs and PMA

**Q.** And the “levels of CD4 expression” value [7]?
**A.** severely diminished

**Q.** What about the “surface CD4 and CXCR4 expression, of that in the control condition” value [8] of the same compound?
**A.** ≥ 50%

**Q.** What about the “levels of GFP expression, rank order” value (HIV LTR in J-Lat clones) of the same compound?
**A.** PMA = ING-B > ING-A = ING-C > prostratin

**Q.** Which EC50 ([1]; Human immunodeficiency virus 1, Human PBMC, Subtype B (X4), read-out: EC50) does the source give for `Cc1cn([C@H]2C[C@H](N=[N+]=[N-])[C@@H](CO)O2)c(=O)[nH]c1=O` [ZDV, Zidovudine, reference compound] here?
**A.** 0.007 µM

**Q.** And the EC50 (HIV-1 subtype B and C)?
**A.** 0.004 to 0.008 µM

**Q.** What about the EC50 [3] of the same compound?
**A.** 0.008 µM

**Q.** And the EC50 [5]?
**A.** 0.005 µM

**Q.** And the EC50 ([6]; MT-4 cells, Subtype B (X4), value estimated by extrapolation, read-out: EC50)?
**A.** 0.004 µM

**Q.** Which “blocking of GFP expression induced by ING-B” value (PKC [9]) does the source give for `COc1ccc2c(c1)c(C1=C(c3c[nH]c4ccccc34)C(=O)NC1=O)cn2CCCN(C)C` [GÖ6983] here?
**A.** strongly blocked GFP expression

**Q.** And the “overexpression of CD4 and CCR5 compared to untreated control” value (PKC [10])?
**A.** up to 2.5 fold

**Q.** And the “effect on ING-B-driven receptor downregulation” value (PKC [11])?
**A.** not able to downregulate the expression of CD4 and CXCR4

From publication PMC4020785 (PLoS ONE, 2014)
